Test results from EP0624163B1, “CYCLIC CALCITONIN DERIVATIVES AND METHOD FOR THEIR PRODUCTION” (Smithkline Beecham Farmaceutici S.p.A., priority 1992, dated 1998).

System: Male Sprague Dawley rats
Assay: Hypocalcaemic activity in rats (total serum calcium after i.v. injection)
Format: in vivo, rat
Settings: fasted rats, blood sampled one hour after dosing, VEHICLE 10.49 + 0.6
Procedure: The hypocalcaemic activity of compounds (I) can be determined as reported for example in J. Endocrinology, 33, 469 (1965).
Male Sprague Dawley rats, about 4 weeks old, were kept under fasting conditions for 24 hours. The compounds were dissolved with BSA buffer (0.1% bovine serum albumin on 0.1M acetate buffer pH 4.5) and injected by the i.v. route into the lateral tail vein at doses of 3-10-30-100 ng/Kg. One hour after the dosing blood was sampled from the tail or neck vessels, then the serum samples obtained.
The serum was diluted with 0.1% lanthanium chloride solution and the concentration of total calcium was determined by Atomic Absorption Spectrophotometry.

Structure (SMILES): CC(C)C[C@H](NC(=O)[C@H](CCCCN)NC(=O)CNC(=O)[C@H](CC(C)C)NC(=O)[C@@H](NC(=O)[C@@H]1CC#CCCC(=O)N[C@@H](CO)C(=O)N[C@@H](CC(N)=O)C(=O)N[C@@H](CC(C)C)C(=O)N[C@@H](CO)C(=O)N[C@@H]([C@@H](C)O)C(=O)N1)C(C)C)C(=O)N[C@@H](CO)C(=O)N[C@@H](CCC(N)=O)C(=O)N[C@@H](CCC(=O)O)C(=O)N[C@@H](CC(C)C)C(=O)N[C@@H](Cc1c[nH]cn1)C(=O)N[C@@H](CCCCN)C(=O)N[C@@H](CC(C)C)C(=O)N[C@@H](CCC(N)=O)C(=O)N[C@H](C(=O)N[C@@H](Cc1ccc(O)cc1)C(=O)N1CCC[C@H]1C(=O)N[C@@H](CCCNC(=N)N)C(=O)N[C@H](C(=O)N[C@@H](C)C(=O)N[C@H](C(=O)NCC(=O)N[C@@H](C)C(=O)NCC(=O)N[C@H](C(=O)N1CCC[C@H]1C(N)=O)[C@@H](C)O)C(C)C)[C@@H](C)O)[C@@H](C)O [Example 4]
- Total serum calcium; mean + S.D. (Dose 3 ng/kg i.v. (lateral tail vein)): 10.09±0.1 mg/100 ml
- Total serum calcium; mean + S.D. (Dose 10 ng/kg i.v. (lateral tail vein)): 8.85±0.25 mg/100 ml
- Total serum calcium; mean + S.D. (Dose 30 ng/kg i.v. (lateral tail vein)): 7.92±0.15 mg/100 ml
- Total serum calcium; mean + S.D. (Dose 100 ng/kg i.v. (lateral tail vein)): 7.66±0.18 mg/100 ml
